Test results published in publication PMC9048745, “Physicochemical investigation of a novel curcumin diethyl γ-aminobutyrate, a carbamate ester prodrug of curcumin with enhanced anti-neuroinflammatory activity” (PLoS ONE, 2022).

Assays:
[1] = parameters: method as in PMID 9278892; settings: cited from earlier work
BV-2 microglial cells = assay: Cytotoxicity (MTT assay); type: cell-based, murine; settings: BV-2 cells, 24 h
Experimental: BV-2 microglial cells were cultured in DMEM supplemented with 10% fetal bovine serum, 2 mM L-glutamine, 1% penicillin/streptomycin (100 units/mL penicillin and 100 μg/mL streptomycin) at 37°C in 5% CO2. BV-2 microglial cells were plated in a 24-well plate at a density of 2 × 10^5 cells/well for 24 h. Various concentrations at 0, 1.25, 2.5, 5, 10, or 20 μM of curcumin or CUR-2GE were determined for a non-toxic concentration. After 24 h, cell viability was assessed by an MTT assay. The media was removed and replaced with an MTT solution in PBS (0.5 mg/mL). After 3-h incubation, the MTT solution was discarded, and formazan crystals formed after the reaction was dissolved in DMSO. The absorbance was then read at 540 nm using a microplate reader (CLARIOstar®, BMG Labtech, Ortenberg, Germany). The percentage of cell viability was expressed relative to the control cells. In addition, the cell viability of BV-2 microglial cells treated with LPS and a combination of LPS and the test compounds was also determined.

[2] = Identification of incomplete hydrolytic products of CUR-2GE (UPLC-MS/MS); type: physicochemical; settings: buffer pH 1.2, 37°C, 24 h; ND = not detected
Experimental: The incomplete hydrolytic products of CUR-2GE were identified in buffers (pH 1.2, 4.5, 6.8 and 7.4) and human plasma. For hydrolysis in the buffer solutions, the stock solution of CUR-2GE at 200 μg/mL was diluted with a pre-incubated buffer in a vial at 37°C to obtain a final concentration at 10 μg/mL. Samples in buffers pH 1.2 and 4.5 were subsequently incubated at 37°C for 24 h while those in buffers pH 6.8 and 7.4 were incubated at 37°C for 7 min. For hydrolysis in human plasma, the stock solution of CUR-2GE at 100 μg/mL in the diluent was prepared and diluted with pre-incubated human plasma at 37°C for 5 min to obtain a final concentration of 5 μg/mL. The sample was incubated at 37°C for 1 h and an aliquot of 300 μL was added with 300 μL of acetonitrile to stop the reaction. The reaction mixture was then centrifuged at 4°C at 14,000 rpm for 30 min. The supernatant was analyzed using UPLC-MS/MS described below. CUR-2GE, CUR-1GE and curcumin standards were prepared at 10 μg/mL in diluent (2% acetic acid in water: acetonitrile (80: 20, v/v)) and were subjected to UPLC-MS/MS analysis. The retention times and MS/MS spectra of CUR-2GE and its hydrolytic products in buffers and human plasma were compared with those of the standards. The UPLC-MS/MS approach was modified from previous studies. […]

[3] = parameters: method as in PMID 29678124, PMID 25923809, PMID 27758710; settings: practically insoluble = <0.1 mg/mL; cited from earlier work

## curcumin
[1]
  half-life in human plasma, previously reported: 8 h
BV-2 microglial cells
  non-toxic concentrations (no cytotoxicity): ≤ 10 µM
[2]
  detection by UPLC-MS/MS after incubation of CUR-2GE: not detected
[3]
  USP solubility classification: practically insoluble
